# According to patent US12582640B2, “Treatment of lower respiratory tract infection with tradipitant” (Vanda Pharmaceuticals Inc., priority 2020, dated 2026):
# Tested on: severe or critical COVID-19 infection
# Test: Randomized, double-blind, placebo-controlled study of tradipitant in hospitalized patients with COVID-19 pneumonia (interim analysis, ITT population)
# Assay type: in vivo, human
# Design: Mortality KM estimate: concentration or dose not given beside the values
# Settings: for Mortality hazard ratio (95% CI) / Hazard ratio (95% CI), responder as improvement of 2 or more points / Odds ratio (95% CI), ordinal score at Day 7 / Odds ratio (95% CI), ordinal score at Day 28: tradipitant vs placebo; for Mortality hazard ratio (95% CI) / Hazard ratio (95% CI), responder as improvement of 2 or more points: Cox model; for Odds ratio (95% CI), ordinal score at Day 7 / Odds ratio (95% CI), ordinal score at Day 28: proportional odds model
# Source text: A randomized, double-blind, placebo-controlled study investigates the efficacy of tradipitant in the treatment of inflammatory lung injury and pneumonia associated with severe or critical COVID-19 infection, and improvement of clinical outcomes associated with severe or critical COVID-19 infection. Such improvements in clinical outcomes include reduction in long term pulmonary function deficits and pulmonary fibrosis.
# Methods: Prospective participants attend a screening visit on study day −1 to 0 to assess the prospective patient's eligibility to participate. All enrolled patients are asked to undertake an initial physical examination and must satisfy inclusion and exclusion criteria before being enrolled into the study. A total sample size of 300 patients (150 per arm) provides approximately 93% power to detect a 20% difference of normalization in fever and oxygen saturation, assuming 50% and 70% normalization rates in placebo and tradipitant treatment groups respectively, based on a two-sided Fisher's Exact Test at a 5% significance level.
# Inclusion criteria include: adults aged 18-90; confirmed laboratory COVID-19 infection by RT-PCR; confirmed pneumonia by chest radiograph or computed tomography; fever defined as temperature ≥36.6° C. armpit, ≥37.2° C. oral, or ≥37.8° C. rectal; and oxygen saturation of less than 92% on room air OR on mechanical ventilation OR increased work of breathing (WOB) on exam without respiratory support OR respiratory rate greater than 20 per minute. Exclusion criteria include: recent use of illicit drugs or alcohol abuse; known allergy to tradipitant or other neurokinin-1 antagonists; pregnancy; known HIV, HBV, or HCV infection; malignant tumor, other serious systemic diseases; and inability to provide informed consent or to have an authorized relative or designated person provide informed consent, or to comply with the protocol requirements.
# Patients who meet the inclusion-exclusion criteria are randomized 1:1 to treatment with either 85 mg tradipitant twice daily (bid) per os (PO, i.e. orally) or matching placebo under double-blind conditions, in addition to standard of care for COVID-19 infection according to protocol at the treating hospital. In both arms, treatment with study medication continues for 14 days or until discharge from the hospital. In both tradipitant treatment and placebo study arms, patients are given one capsule of study medication to be taken orally every day in the morning prior to or at 9:00 am and one capsule of study medication to be taken orally every day in the evening approximately 12 hours later (±1 hour). Patients in the tradipitant treatment arm receive capsules containing 85 mg tradipitant, as well as spray-dried lactose monohydrate, microcrystalline cellulose (Avicel PH102 and PH200), povidone, croscarmellose sodium, sodium lauryl sulfate, and magnesium stearate as excipients. The tradipitant capsules are white opaque, hard gelatin capsules. Placebo capsules are provided in size and appearance identical to those containing tradipitant.
# For patients requiring administration via nasogastric tube, the following procedure is used: 1) empty contents of one 85 mg capsule in a glass mortar and grind using a pestle until all granules are thoroughly crushed; 2) add 10 mL of water while continuing to grind to obtain a uniform dispersion; 3) draw up entire dispersion into a suitable syringe; 4) connect syringe tip to nasogastric tube and push entire syringe contents; and 5) rinse mortar and pestle with 5 mL of water and repeat steps 3) and 4). The crushing procedure results in the preparation of a uniform dispersion in water, which can then be administered through a nasogastric tube without clogging.
# Patient assessments are performed in accordance with the schedule of evaluations detailed in Table 1 below.
# Mortality is assessed as the proportion of participants with in-hospital mortality, and is evaluated per treatment arm. […]
# [1] = Day 7, baseline ordinal score 3
# [2] = Day 7, baseline ordinal score 4
# [3] = Day 28, baseline ordinal score 2
# [4] = Day 28, baseline ordinal score 3
# [5] = Day 28, baseline ordinal score 4
# [6] = ITT overall, >1 benefit for tradipitant
# [7] = baseline ordinal score 2 (N = 4)
# [8] = baseline ordinal score 3 (N = 13)
# [9] = baseline ordinal score 4 (N = 9)
# [10] = tradipitant arm, 85 mg bid PO plus standard of care, interim analysis
smiles,measurement,setting,value
"O=C(c1ccccc1Cl)c1cccnc1-c1nnn(Cc2cc(C(F)(F)F)cc(C(F)(F)F)c2)c1-c1ccncc1 [Tradipitant, {2-[1-(3,5-bistrifluoromethylbenzyl)-5-pyridin-4-yl-1H-[1,2,3]triazol-4-yl]-pyridin-3-yl}-(2-chlorophenyl)-methanone]",Mortality KM estimate,"Day 7, ITT overall",9.8%
same,No. of responders (improvement of 2 or more points),"Day 7, ITT overall (N = 28)",13
same,Mortality hazard ratio (95% CI),"Day 7, ITT overall, <1 benefit for tradipitant",2.65
same,Mortality KM estimate,"Day 7, baseline ordinal score 2",25.0%
same,No. of responders (improvement of 2 or more points),"Day 7, baseline ordinal score 2 (N = 4)",3
same,Mortality KM estimate,[1],0.0%
same,No. of responders (improvement of 2 or more points),"Day 7, baseline ordinal score 3 (N = 13)",2
same,"Hazard ratio (95% CI), responder as improvement of 2 or more points",[1],2.19
same,Mortality KM estimate,[2],25.0%
same,No. of responders (improvement of 2 or more points),"Day 7, baseline ordinal score 4 (N = 9)",6
same,"Hazard ratio (95% CI), responder as improvement of 2 or more points",[2],2.23
same,Mortality hazard ratio (95% CI),[2],3.14
same,Mortality KM estimate,"Day 28, ITT overall",20.4%
same,No. of responders (improvement of 2 or more points),"Day 28, ITT overall (N = 28)",16
same,Mortality hazard ratio (95% CI),"Day 28, ITT overall, <1 benefit for tradipitant",1.03
same,Mortality KM estimate,[3],50.0%
same,No. of responders (improvement of 2 or more points),"Day 28, baseline ordinal score 2 (N = 4)",3
same,Mortality hazard ratio (95% CI),[3],1.84
same,Mortality KM estimate,[4],9.1%
same,No. of responders (improvement of 2 or more points),"Day 28, baseline ordinal score 3 (N = 13)",4
same,"Hazard ratio (95% CI), responder as improvement of 2 or more points",[4],1.08
same,Mortality hazard ratio (95% CI),[4],0.95
same,Mortality KM estimate,[5],25.0%
same,No. of responders (improvement of 2 or more points),"Day 28, baseline ordinal score 4 (N = 9)",7
same,"Hazard ratio (95% CI), responder as improvement of 2 or more points",[5],1.59
same,Mortality hazard ratio (95% CI),[5],1.24
same,Median time to responder (95% CI),"Day 28 analysis, ITT overall (N = 28), listed as tradipitant",10 days
same,No. of deaths by day 7,ITT overall (N = 28),2
same,No. of deaths by day 28,ITT overall (N = 28),4
same,"Odds ratio (95% CI), ordinal score at Day 7",[6],1.05
same,"Odds ratio (95% CI), ordinal score at Day 28",[6],1.01
same,No. of deaths by day 7,[7],1
same,No. of deaths by day 28,[7],2
same,"Odds ratio (95% CI), ordinal score at Day 7",baseline ordinal score 2,0.43
same,"Odds ratio (95% CI), ordinal score at Day 28",baseline ordinal score 2,0.43
same,No. of deaths by day 7,[8],0
same,No. of deaths by day 28,[8],1
same,"Odds ratio (95% CI), ordinal score at Day 7",baseline ordinal score 3,2.69
same,"Odds ratio (95% CI), ordinal score at Day 28",baseline ordinal score 3,2.21
same,No. of deaths by day 7,[9],1
same,No. of deaths by day 28,[9],1
same,"Odds ratio (95% CI), ordinal score at Day 7",baseline ordinal score 4,0.40
same,"Odds ratio (95% CI), ordinal score at Day 28",baseline ordinal score 4,0.62
same,mortality rate,[10],14.2%
same,patients showing clinical improvement (at least a 2 point improvement in the 7 point ordinal scale),[10],57%
